Measured values reported in the supplement of paper PMC8671470.

Assays:
Conditions in all cases: 72 h
NOMO-1 [1] = system: NOMO-1
In short: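 Each of fifteen myeloid leukaemia cell lines was seeded in RPMI 1640 at a density titrated to its linear growth range. The cells were incubated for 72 h at 37 °C and 5% CO2 with compounds at five tenfold doses from 1 to 10,000 nM, in duplicate. After ATP luminescence was normalised to vehicle and to a positive control at 10 µM, four-parameter log-logistic curves were fitted. These curves gave the IC50.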

HL-60 [2] = assay: cell viability (% survival relative to DMSO control); higher = less cytotoxic
In short: (§1)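 Four-parameter log-logistic fits in drc and PharmacoGx supplied area under the curve where it is given. Underlying viability came from CellTiter-Glo, normalised to DMSO and proteasome-inhibitor wells, with the proteasome inhibitor at 10 μM. HL-60 cells in RPMI 1640 plus 10% FBS had been rescreened against the full library at five tenfold concentrations of 1–10,000 nM, in duplicate on 384-well plates, with DMSO or 100 nM of one of three metabolic inhibitors, for 72 h at 37 °C, 5% CO2.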

BV-173 = assay: cell viability (% survival relative to DMSO control, bortezomib = 0%); higher = less cytotoxic
In short: (§2)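 Seeding density for each of the 10 AML and 5 CML cell lines was titrated to the linear growth range. Cells went into 384-well plates pre-printed in duplicate with compounds at 1, 10, 100, 1000 or 10000 nM and were held for 72 h at 37 °C with 5% CO2. CellTiter-Glo luminescence then provided the readout. Percent survival is expressed relative to vehicle at 100% and a 10 µM positive control at 0%, averaged over duplicates.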

HEL = assay: as above
In short: as §2

HL-60 [3] = assay: as above
In short: as §2

K-562 = assay: as above
In short: as §2

KCL-22 = assay: as above
In short: as §2

KG-1 = assay: as above
In short: as §2

KU-812 = assay: as above
In short: as §2

LAMA-84 = assay: as above
In short: as §2

ML-2 = assay: as above
In short: as §2

MOLM-13 = assay: as above
In short: as §2

MV4-11 = assay: as above
In short: as §2

Mono-Mac-6 = assay: as above
In short: as §2

NOMO-1 [4] = assay: as above
In short: as §2

SHI-1 = assay: as above
In short: as §2

THP-1 = assay: as above
In short: as §2

HL-60 [5] = assay: area under dose-response curve (viability, 1 nM-10 uM) (fraction (0-1)); higher = more sensitive
In short: as §1

O=C(/C=C/c1cccnc1)NCCCCC1CCN(C(=O)c2ccccc2)CC1 [Daporinad]
Conditions | IC50 (cell viability) [nM]
NOMO-1 [1] | < 1

cell viability [%], HL-60 [2]
Conditions | 0.001 µM | 0.01 µM | 0.1 µM | 1 µM | 10 µM
co-treatment: AZD3965 100 nM | 101 | 17.8 | 1.54 | 0.351 | 0.166
co-treatment: DMSO vehicle | 93.6 | 37.7 | 3.2 | 0.816 | 0.766
co-treatment: GSK2194069 100 nM | 86.2 | 31.1 | 2.41 | 0.71 | 1.09
co-treatment: pictilisib 100 nM | 89.7 | 42 | 2.3 | 0.651 | 2.01

Conditions | area under dose-response curve, co-treatment: AZD3965 100 nM | area under dose-response curve, co-treatment: DMSO vehicle | area under dose-response curve, co-treatment: GSK2194069 100 nM | area under dose-response curve, co-treatment: pictilisib 100 nM | cell viability, 1 nM [%] | cell viability, 10 nM [%] | cell viability, 100 nM [%] | cell viability, 1000 nM [%] | cell viability, 10000 nM [%]
BV-173 | – | – | – | – | 15.7 | 1.15 | 0.0754 | 0.00943 | 0.321
HEL | – | – | – | – | 85.7 | 2.97 | 1.75 | 1.48 | 1.85
HL-60 [3] | – | – | – | – | 63.1 | 6.64 | -0.363 | -0.298 | -0.289
HL-60 [5] | 0.825 | 0.78 | 0.79 | 0.75 | – | – | – | – | –
K-562 | – | – | – | – | 86.5 | 20.4 | 1.83 | 0.861 | 1.37
KCL-22 | – | – | – | – | 83.9 | 10.3 | 1.38 | 1.35 | 1.59
KG-1 | – | – | – | – | 88 | 25.3 | 10.8 | 8.29 | 7.46
KU-812 | – | – | – | – | 71.9 | 14.8 | 5.16 | 5.8 | 4.77
LAMA-84 | – | – | – | – | 83.1 | 6.18 | 2.02 | 1.79 | 2.17
ML-2 | – | – | – | – | 66 | 1.63 | 0.115 | 0.00307 | -0.274
MOLM-13 | – | – | – | – | 69.1 | 15.7 | 0.0519 | 0.204 | -0.318
MV4-11 | – | – | – | – | 25.5 | 0.401 | 0.0312 | -0.345 | -0.425
Mono-Mac-6 | – | – | – | – | 99.2 | 75.4 | 16.7 | 16.4 | 0.909
NOMO-1 [4] | – | – | – | – | 34.5 | 1.36 | 0.217 | 0.164 | 0.267
SHI-1 | – | – | – | – | 86.7 | 107 | 83 | 68.9 | 75.5
THP-1 | – | – | – | – | 85.6 | 120 | 102 | 104 | 101
